Experimental data as given in patent US20240209028A1, “CNP COMPOUNDS” (priority 2022, published 2024).
Like-named read-outs stand apart in the source and are kept apart here. Starred links: 1 amine or outer side, 2 acyl side, 3 side chain; linkers in the order of their positions; H or OH if unused. Positions of bridges follow the written chain, without caps; N, C: chain ends. Residues, ends and D or L forms follow the SMILES beside them. *: point of attachment. C18 diacid = O=C(O)CCCCCCCCCCCCCCCCC(=O)*; γGlu = O=C(O)[C@H](CCC(=O)[*:2])N[*:1]; AEEA = NCCOCCOCC(=O)O

Experiments:
[1] = PK of CNP compounds after i.v. and s.c. administration to rats; conditions: male, Sprague Dawley, in vivo, rat; for clearance: read-out: Cl (L/hr/kg), i.v. administration (converted); for bioavailability: s.c. bioavailability, read-out: F (%), s.c. administration
How it was run: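 Male Sprague Dawley rats (n=4-6) were dosed at 300 nmol/kg s.c. or 100 nmol/kg i.v., formulated at pH 7.4 or 4.0, and sampled up to 72 h. Plasma levels were measured by TF-LC-MS against calibrators from 0.5 to 2000 nM. Non-compartmental PK used dose-normalized AUC for bioavailability, with values given as means.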

[2] = High-Molecular-Weight-Protein (HMWP) formation by SEC-UPLC; format: physicochemical; conditions: increase over two weeks at 37° C.
How it was run: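 Formulations at pH 4.0 or 6.5 incubated quiescently for two weeks at 37 °C; HMWP (peaks eluting before monomer, % of total peptide area) measured by SEC-UPLC, pH 2.4 mobile phase with 50% isopropanol, 50 °C, UV 215 nm. Value is HMWP increase, normalized to two weeks if needed.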

[3] = iv, i.v., about 100 nmol/kg, read-out: T½ (hr), i.v. administration (converted)
[4] = sc, s.c., about 300 nmol/kg, read-out: T½ (hr), s.c. administration (converted)

SMILES	clearance ([1]; iv, i.v., about 100 nmol/kg) [L/h/kg]	half-life [1, 3] [h]	2-Week HMWP formation at pH 6.5 (%), % relative to total peak area [2] [%]	bioavailability ([1]; sc, about 300 nmol/kg) [%]	half-life [1, 4] [h]	2-Week HMWP formation at pH 4.0 (%), % relative to total peak area ([2]; pH 4.0) [%]
CC[C@H](C)[C@@H]1NC(=O)[C@H](CCCNC(=N)N)NC(=O)[C@H](CC(=O)O)NC(=O)[C@H](CC(C)C)NC(=O)[C@@H]2CCCN2C(=O)[C@H](CC(C)C)NC(=O)CNC(=O)[C@H](Cc2ccccc2)NC(=O)[C@@H](NC(=O)CNC(=O)[C@H](CO)NC(=O)[C@H](CO)NC(=O)[C@H](CC(C)C)NC(=O)CNC(=O)[C@H](CCCCN)NC(=O)[C@H](CCCCN)NC(=O)[C@H](CCC(N)=O)NC(=O)[C@H](C)NC(=O)CNC(=O)[C@H](CCC(=O)O)NC(=O)[C@H](Cc2ccc(O)cc2)NC(=O)COCCOCCNC(=O)COCCOCCNC(=O)COCCOCCNC(=O)COCCOCCNC(=O)CC[C@H](NC(=O)CCCCCCCCCCCCCCCCC(=O)O)C(=O)O)CSSC[C@@H](C(=O)O)NC(=O)CNC(=O)[C@H](CC(C)C)NC(=O)CNC(=O)[C@H](CO)NC(=O)[C@H](CC(C)C)NC(=O)[C@H](CO)NC(=O)CNC1=O [compound 1392] ({C18 diacid-γGlu-AEEA-AEEA-AEEA-AEEA}-YEGAQKKGLSSGCFGLPLDRIGSLSGLGC-OH; disulfide 13-29)	0.00799	5.72	0.33			
CC[C@H](C)[C@@H]1NC(=O)[C@H](CCCNC(=N)N)NC(=O)[C@H](CC(=O)O)NC(=O)[C@H](CC(C)C)NC(=O)[C@@H]2CCCN2C(=O)[C@H](CC(C)C)NC(=O)CNC(=O)[C@H](Cc2ccccc2)NC(=O)[C@@H](NC(=O)CNC(=O)[C@H](CCC(N)=O)NC(=O)[C@H](CO)NC(=O)CNC(=O)CNC(=O)[C@H](CCCCN)NC(=O)[C@H](CCCCN)NC(=O)[C@H](CCC(N)=O)NC(=O)[C@H](C)NC(=O)CNC(=O)[C@H](Cc2c[nH]cn2)NC(=O)[C@H](Cc2ccc(O)cc2)NC(=O)COCCOCCNC(=O)COCCOCCNC(=O)COCCOCCNC(=O)COCCOCCNC(=O)CC[C@H](NC(=O)CC[C@H](NC(=O)CCCCCCCCCCCCCCCCC(=O)O)C(=O)O)C(=O)O)CSSC[C@@H](C(=O)O)NC(=O)CNC(=O)[C@H](CC(C)C)NC(=O)CNC(=O)[C@H](CO)NC(=O)[C@H](CC(C)C)NC(=O)[C@H](CO)NC(=O)CNC1=O [compound 1434] ({C18 diacid-γGlu-γGlu-AEEA-AEEA-AEEA-AEEA}-YHGAQKKGGSQGCFGLPLDRIGSLSGLGC-OH; disulfide 13-29)	0.00764	8.34	3.2			
CC[C@H](C)[C@@H]1NC(=O)[C@H](CCCNC(=N)N)NC(=O)[C@H](CC(=O)O)NC(=O)[C@H](CC(C)C)NC(=O)[C@@H]2CCCN2C(=O)[C@H](CC(C)C)NC(=O)CNC(=O)[C@H](Cc2ccccc2)NC(=O)[C@@H](NC(=O)CNC(=O)[C@H](CCC(N)=O)NC(=O)[C@H](CO)NC(=O)[C@H](CO)NC(=O)CNC(=O)[C@H](CCCCN)NC(=O)[C@H](CCCCN)NC(=O)[C@H](CCC(N)=O)NC(=O)[C@H](C)NC(=O)CNC(=O)[C@@H]2CCCN2C(=O)[C@H](C)NC(=O)[C@H](CCC(N)=O)NC(=O)CNC(=O)COCCOCCNC(=O)COCCOCCNC(=O)CC[C@H](NC(=O)CCCCCCCCCCCCCCCCC(=O)O)C(=O)O)CSSC[C@@H](C(=O)O)NC(=O)CNC(=O)[C@H](CC(C)C)NC(=O)CNC(=O)[C@H](CO)NC(=O)[C@H](CC(C)C)NC(=O)[C@H](CO)NC(=O)CNC1=O [compound 9384] ({C18 diacid-γGlu-AEEA-AEEA}-GQAPGAQKKGSSQGCFGLPLDRIGSLSGLGC-OH; disulfide 15-31; C-terminus assumed)	0.00493	9.15	1.5	49.7	9.47	
CC[C@H](C)[C@@H]1NC(=O)[C@H](CCCNC(=N)N)NC(=O)[C@H](CC(=O)O)NC(=O)[C@H](CC(C)C)NC(=O)[C@@H]2CCCN2C(=O)[C@H](CC(C)C)NC(=O)CNC(=O)[C@H](Cc2ccccc2)NC(=O)[C@@H](NC(=O)CNC(=O)[C@H](CCC(N)=O)NC(=O)[C@H](CO)NC(=O)[C@H](CC(C)C)NC(=O)CNC(=O)[C@H](CCCCN)NC(=O)[C@H](CCCCN)NC(=O)[C@H](CCC(N)=O)NC(=O)[C@H](C)NC(=O)CNC(=O)[C@H](CCCCN)NC(=O)[C@H](Cc2ccc(O)cc2)NC(=O)[C@H](CCCCN)NC(=O)[C@H](CCCNC(=N)N)NC(=O)[C@H](C)NC(=O)COCCOCCNC(=O)COCCOCCNC(=O)COCCOCCNC(=O)COCCOCCNC(=O)CC[C@H](NC(=O)CC[C@H](NC(=O)CC[C@H](NC(=O)CC[C@H](NC(=O)CC[C@H](NC(=O)CCCCCCCCCCCCCCCCC(=O)O)C(=O)O)C(=O)O)C(=O)O)C(=O)O)C(=O)O)CSSC[C@@H](C(=O)O)NC(=O)CNC(=O)[C@H](CC(C)C)NC(=O)CNC(=O)[C@H](CO)NC(=O)[C@H](CC(C)C)NC(=O)[C@H](CO)NC(=O)CNC1=O [compound 9407] ({C18 diacid-γGlu-γGlu-γGlu-γGlu-γGlu-AEEA-AEEA-AEEA-AEEA}-ARKYKGAQKKGLSQGCFGLPLDRIGSLSGLGC-OH; disulfide 16-32)	0.00515	15.2	12	37.2	14.9	
CC[C@H](C)[C@@H]1NC(=O)[C@H](CCCNC(=N)N)NC(=O)[C@H](CC(=O)O)NC(=O)[C@H](CC(C)C)NC(=O)[C@@H]2CCCN2C(=O)[C@H](CC(C)C)NC(=O)CNC(=O)[C@H](Cc2ccccc2)NC(=O)[C@@H](NC(=O)CNC(=O)[C@H](CCC(N)=O)NC(=O)[C@H](CO)NC(=O)CNC(=O)CNC(=O)[C@H](CCCCN)NC(=O)[C@H](CCCCN)NC(=O)[C@H](CCC(N)=O)NC(=O)[C@H](C)NC(=O)CNC(=O)[C@H](CCCCN)NC(=O)[C@H](Cc2ccc(O)cc2)NC(=O)COCCOCCNC(=O)COCCOCCNC(=O)COCCOCCNC(=O)COCCOCCNC(=O)CC[C@H](NC(=O)CC[C@H](NC(=O)CCCCCCCCCCCCCCCCC(=O)O)C(=O)O)C(=O)O)CSSC[C@@H](C(=O)O)NC(=O)CNC(=O)[C@H](CC(C)C)NC(=O)CNC(=O)[C@H](CO)NC(=O)[C@H](CC(C)C)NC(=O)[C@H](CO)NC(=O)CNC1=O [compound 9435] ({C18 diacid-γGlu-γGlu-AEEA-AEEA-AEEA-AEEA}-YKGAQKKGGSQGCFGLPLDRIGSLSGLGC-OH; disulfide 13-29; C-terminus assumed)	0.00458	10.4	1.93			1.07
CC[C@H](C)[C@@H]1NC(=O)[C@H](CCCNC(=N)N)NC(=O)[C@H](CC(=O)O)NC(=O)[C@H](CC(C)C)NC(=O)[C@@H]2CCCN2C(=O)[C@H](CC(C)C)NC(=O)CNC(=O)[C@H](Cc2ccccc2)NC(=O)[C@@H](NC(=O)CNC(=O)[C@H](CO)NC(=O)[C@H](CO)NC(=O)[C@H](CC(C)C)NC(=O)CNC(=O)[C@H](CCCCN)NC(=O)[C@H](CCCCN)NC(=O)[C@H](CCC(N)=O)NC(=O)[C@H](C)NC(=O)CNC(=O)[C@H](CCCCN)NC(=O)[C@H](Cc2ccc(O)cc2)NC(=O)[C@H](CCCCN)NC(=O)[C@H](CCCNC(=N)N)NC(=O)[C@H](C)NC(=O)[C@H](CCC(N)=O)NC(=O)[C@@H]2CCCN2C(=O)[C@H](Cc2c[nH]cn2)NC(=O)[C@H](CCC(=O)O)NC(=O)[C@H](CCC(N)=O)NC(=O)CC[C@H](NC(=O)CC[C@H](NC(=O)CC[C@H](NC(=O)CC[C@H](NC(=O)CC[C@H](NC(=O)CCCCCCCCCCCCCCCCC(=O)O)C(=O)O)C(=O)O)C(=O)O)C(=O)O)C(=O)O)CSSC[C@@H](C(=O)O)NC(=O)CNC(=O)[C@H](CC(C)C)NC(=O)CNC(=O)[C@H](CO)NC(=O)[C@H](CC(C)C)NC(=O)[C@H](CO)NC(=O)CNC1=O [compound 9482] ({C18 diacid-γGlu-γGlu-γGlu-γGlu-γGlu}-QEHPQARKYKGAQKKGLSSGCFGLPLDRIGSLSGLGC-OH; disulfide 21-37)	0.00549	14.5	1.96	71.5	18.6	
